Source: publication PMC6736568, “Discovery of Novel Anti-cryptosporidial Activities From Natural Products by in vitro High-Throughput Phenotypic Screening” (Frontiers in Microbiology, 2019)
Like-named read-outs stand apart in the source and are kept apart here.

Key:
Cryptosporidium parvum = experiment: qRT-PCR assay of the growth of C. parvum in vitro in HCT-8 host cells (primary and secondary screening, EC50); assay type: cell-based
[1] = primary screening at 10 uM, from Hs18S ΔCT
[2] = primary screening at 10 uM, treated vs control

Row | Compound | Inhibition (%) (Cryptosporidium parvum; primary screening at 10 uM) | % Inhibition (3.3 uM) (Cryptosporidium parvum; secondary screening at 3.3 uM) [%] | Cytotoxicity (%) (HCT-8 host cells (Hs18S); [1]) | Hs18S ΔCT (HCT-8 host cells (Hs18S); [2]) | % Inhibition (3.3 uM) (Cryptosporidium parvum) | Inhibition (%) (Cryptosporidium parvum; 10 µM) | Hs18S ΔCT (HCT-8 host cells (Hs18S)) | Cytotoxicity (%) (HCT-8 host cells (Hs18S); 10 µM)
1 | CC1(C)C2CC(=O)[C@]3(C)C(CC[C@@]4(C)[C@H](c5ccoc5)OC(=O)C5OC543)[C@@]2(C)[C@@H](O)C[C@H]1O (stereo partly drawn) | 69.64 | 3 | 4.7 | 0.07 | – | – | – | –
2 | C=C1CCC(C2CC(=O)OC2=O)C(=O)CCC2C1CC2(C)C (stereo not drawn) | 23.70 | – | -6.8 | -0.09 | – | – | – | –
3 | C/C1=C\CC/C(C)=C/CC(C)(C)/C=C/C1 | -30.91 | – | 0.1 | 0.00 | – | – | – | –
4 | CC[C@H](C=C[C@@H](C)[C@H]1CC[C@H]2[C@@H]3CCC4=CC(=O)CC[C@]4(C)[C@H]3CC[C@]12C)C(C)C | – | – | – | – | -6 | 64.69 | 0.46 | 27.4
5 | 3-ACETYLGEDUNOL | -40.49 | – | 56.3 | 1.19 | – | – | – | –
6 | CC1=CC(=O)CC(C)(C)C1(O)/C=C/C(C)=C\C(=O)O (racemic) [ABSCISIC ACID (cis,trans; +/-)] | -7.09 | – | 36.3 | 0.65 | – | – | – | –
7 | C=CC[S+]([O-])C[C@H](N)C(=O)O (mixture of isomers) [L(+/-)-ALLIIN] | 21.98 | – | -12.5 | -0.17 | – | – | – | –
8 | CC1(C)C(=O)[C@@H]2O[C@@H]2[C@@]2(C)C1C[C@@H](O)[C@]1(C)C2CC[C@@]2(C)[C@H](c3ccoc3)OC(=O)C3OC321 (stereo partly drawn) [1,2alpha-EPOXYDEACETOXYDIHYDROGEDUNIN] | 56.48 | – | -12.9 | -0.18 | – | – | – | –
9 | CC1(C)C2CC(=O)[C@]3(C)C(CC[C@@]4(C)[C@H](c5ccoc5)OC(=O)[C@H]5O[C@]543)[C@@]2(C)C(=O)C[C@H]1O (stereo partly drawn) [1,7-DIDEACETOXY-1,7-DIOXO-3-DEACETYLKHIVORIN] | 26.84 | – | -6.9 | -0.10 | – | – | – | –
10 | COc1cc2oc3cc(OC)c(OC)c(CC=C(C)C)c3c(=O)c2c(O)c1CC=C(C)C [1-HYDROXY-3,6,7-TRIMETHOXY-2,8-DIPRENYLXANTHONE] | -18.05 | – | 7.7 | 0.12 | – | – | – | –
11 | C[C@@H](N)[C@@H](O)c1ccccc1 [1R,2S-PHENYLPROPYLAMINE] | -7.00 | – | – | – | – | – | -0.16 | -12.0
12 | COc1cc(O)c(C(=O)/C=C/c2ccc(OC)c(O)c2)c(OC)c1 [2',3-DIHYDROXY-4,4',6'-TRIMETHOXYCHALCONE] | -6.64 | – | -22.2 | -0.29 | – | – | – | –
13 | COc1ccc(/C=C/C(=O)c2ccc(O)cc2O)cc1 [2',4'-DIHYDROXY-4-METHOXYCHALCONE] | 14.88 | – | -99.8 | -1.00 | – | – | – | –
14 | COc1cc(O)c(C(=O)/C=C/c2ccc(O)c(OC)c2)c(OC)c1 [2',4-DIHYDROXY-3,4',6'-TRIMETHOXYCHALCONE] | – | – | – | 0.09 | – | – | – | –
15 | O=C(/C=C/c1ccc(O)cc1)c1ccccc1O [2',4-DIHYDROXYCHALCONE] | -21.40 | – | 8.3 | 0.13 | – | – | – | –
16 | COc1ccc(/C=C/C(=O)c2cc(O)ccc2O)cc1 [2',5'-DIHYDROXY-4-METHOXYCHALCONE] | – | – | – | – | – | -23.93 | -0.46 | -37.7
17 | COc1ccc(-c2oc3cc(OC)c(OC)c(OC)c3c(=O)c2OC)cc1 [3,4',5,6,7-PENTAMETHOXYFLAVONE] | -9.57 | – | 15.6 | 0.24 | – | – | – | –
18 | COc1ccc(-c2oc3ccccc3c(=O)c2OC)cc1 [3,4'-DIMETHOXYFLAVONE] | -22.87 | – | 22.3 | 0.36 | – | – | – | –
19 | CC1(C)CC2C1CC[C@]1(C)CCC3C(C(=O)O)CC(=O)O[C@@]32C1 (stereo partly drawn) [3-HYDROXY-4-(SUCCIN-2-YL)-CARYOLANE delta-LACTONE] | 51.45 | – | 28.8 | 0.49 | – | – | – | –
20 | NCCc1ccc(O)c(O)c1 [3-HYDROXYTYRAMINE] | – | 6 | – | – | – | – | 0.76 | 41.1
21 | CC(=O)OC1CCC2(C)C(CC(OC(C)=O)C3(C)C4=CC(=O)OC(c5ccoc5)C4(C)CCC23)C1(C)C (stereo not drawn) [3alpha-ACETOXYDIHYDRODEOXYGEDUNIN] | – | 25 | – | -0.24 | – | – | – | –
22 | CC(C(=O)O)[C@H]1CCC2C3CC=C4C[C@@H](O)CC[C@]4(C)C3CC[C@@]21C (stereo partly drawn) [3beta-HYDROXY-23,24-BISNORCHOL-5-ENIC ACID] | -20.26 | – | -63.2 | -0.71 | – | – | – | –
23 | CC(=O)O[C@@H]1CC2C(C)(CC[C@H](O)C2(C)C)C2CC[C@]3(C)C(=CC(=O)O[C@H]3c3ccoc3)C21C (stereo partly drawn) [3beta-HYDROXYDEOXODIHYDRODEOXYGEDUNIN] | 77.26 | -21 | -19.7 | -0.26 | – | – | – | –
24 | C[C@@H]1CC[C@@]2(OC1)O[C@H]1C[C@H]3[C@@H]4CC[C@H]5C[C@@H](O)CC[C@]5(C)C4=CC[C@]3(C)[C@H]1[C@@H]2C [3beta-HYDROXYISOALLOSPIROST-9(11)-ENE] | 6.79 | – | -12.6 | -0.17 | – | – | – | –
25 | COc1cc(O)c(C(C)=O)c(O)c1 [4-O-METHYLPHLORACETOPHENONE] | 2.57 | – | 10.4 | 0.16 | – | – | – | –
26 | COc1ccc(-c2cc(=O)c3c(O)cc(OC)c(OC)c3o2)c(OC)c1 [5-HYDROXY-2',4',7,8-TETRAMETHOXYFLAVONE] | 89.23 | -83 | 13.2 | 0.20 | – | – | – | –
27 | CC(=O)O[C@H]1C[C@@H](OC(C)=O)C(C)(C)C2C[C@@H](O)[C@]3(C)C(CC[C@@]4(C)[C@H](c5ccoc5)OC(=O)[C@H]5O[C@]543)[C@]21C (stereo partly drawn) [7-DEACETYLKHIVORIN] | – | – | -46.2 | -0.55 | – | – | – | –
